Measured values reported in patent US8952024B2, “Herbicidal pyrimidone derivatives” (E I du Pont de Nemours and Company, priority 2009, dated 2015).

Assays:
Test in all cases: Test B pre-/postemergence plant response
Format in all cases: in vivo
[1] = test system: Italian ryegrass (Lolium multiflorum); details: for Ryegrass, Italian plant response rating (0 to 100 scale): 62 g ai/ha, postemergence, 0 is no effect, 100 is complete control; for Plant response rating, Ryegrass, Italian: Postemergence
In short: (§1)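 Compound in solvent + surfactant applied pre-em (loam/sand) or post-em (plants 2–18 cm, peat medium); greenhouse hold 13–15 days; visual 0–100 control score.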

[2] = test system: bermudagrass (Cynodon dactylon); details: for Bermudagrass plant response rating (0 to 100 scale): 62 g ai/ha, postemergence, 0 is no effect, 100 is complete control; for Plant response rating, Bermudagrass: Postemergence
In short: as §1

[3] = test system: cocklebur (Xanthium strumarium); details: for Cocklebur plant response rating (0 to 100 scale): 62 g ai/ha, postemergence, 0 is no effect, 100 is complete control; for Plant response rating, Cocklebur: Postemergence
In short: as §1

[4] = test system: downy bromegrass (Bromus tectorum); details: for Bromegrass, Downy plant response rating (0 to 100 scale): 62 g ai/ha, postemergence, 0 is no effect, 100 is complete control; for Plant response rating, Bromegrass, Downy: Postemergence
In short: as §1

kochia (Kochia scoparia) = details: for Kochia plant response rating (0 to 100 scale): 62 g ai/ha, postemergence, 0 is no effect, 100 is complete control; for Plant response rating, Kochia: Postemergence
In short: as §1

[5] = test system: large crabgrass (Digitaria sanguinalis); details: for Crabgrass, Large plant response rating (0 to 100 scale): 62 g ai/ha, postemergence, 0 is no effect, 100 is complete control; for Plant response rating, Crabgrass, Large: Postemergence
In short: as §1

[6] = test system: morningglory (Ipomoea coccinea); details: for Morningglory plant response rating (0 to 100 scale): 62 g ai/ha, postemergence, 0 is no effect, 100 is complete control; for Plant response rating, Morningglory: Postemergence
In short: as §1

soybean (Glycine max) = details: for Soybean plant response rating (0 to 100 scale): 62 g ai/ha, postemergence, 0 is no effect, 100 is complete control; for Plant response rating, Soybean: Postemergence
In short: as §1

[7] = test system: velvetleaf (Abutilon theophrasti); details: for Velvetleaf plant response rating (0 to 100 scale): 62 g ai/ha, postemergence, 0 is no effect, 100 is complete control; for Plant response rating, Velvetleaf: Postemergence
In short: as §1

[8] = test system: wheat (Triticum aestivum); details: for Wheat plant response rating (0 to 100 scale): 62 g ai/ha, postemergence, 0 is no effect, 100 is complete control; for Plant response rating, Wheat: Postemergence
In short: as §1

[9] = test system: woolly cupgrass (Eriochloa villosa); details: for Cupgrass, Woolly plant response rating (0 to 100 scale): 62 g ai/ha, postemergence, 0 is no effect, 100 is complete control; for Plant response rating, Cupgrass, Woolly: Postemergence
In short: as §1

[10] = test system: yellow nutsedge (Cyperus esculentus); details: for Nutsedge, Yellow plant response rating (0 to 100 scale): 62 g ai/ha, postemergence, 0 is no effect, 100 is complete control; for Plant response rating, Nutsedge, Yellow: Postemergence
In short: as §1

[11] = 31 g ai/ha, 0 to 100 scale (0 no effect, 100 complete control)
[12] = 125 g ai/ha, scale 0 to 100 (0 no effect, 100 complete control)
[13] = 250 g ai/ha, scale 0 to 100 (0 no effect, 100 complete control), 13 to 15 days

Question: What does the source list for CCCn1c(-c2cccc(Br)c2)ncc(C(=O)C2=C(O)CCCC2=O)c1=O [Compound 141]?
Answer: Ryegrass, Italian plant response rating (0 to 100 scale) ([1]; 13 to 15 days): 0; Plant response rating, Ryegrass, Italian [1, 11]: 0; Plant response rating, Ryegrass, Italian [1, 12]: 0; Plant response rating, Ryegrass, Italian [1, 13]: 5; Bermudagrass plant response rating (0 to 100 scale) ([2]; 13 to 15 days): 85; Plant response rating, Bermudagrass [2, 11]: 80; Plant response rating, Bermudagrass [2, 12]: 85; Plant response rating, Bermudagrass [2, 13]: 90; Cocklebur plant response rating (0 to 100 scale) ([3]; 13 to 15 days): 65; Plant response rating, Cocklebur [3, 11]: 40; Plant response rating, Cocklebur [3, 12]: 95; Plant response rating, Cocklebur [3, 13]: 100; Bromegrass, Downy plant response rating (0 to 100 scale) ([4]; 13 to 15 days): 5; Plant response rating, Bromegrass, Downy [4, 11]: 0; Plant response rating, Bromegrass, Downy [4, 12]: 10; Plant response rating, Bromegrass, Downy [4, 13]: 45; Kochia plant response rating (0 to 100 scale) (kochia (Kochia scoparia); 13 to 15 days): 65; Plant response rating, Kochia (kochia (Kochia scoparia); [11]): 20; Plant response rating, Kochia (kochia (Kochia scoparia); [12]): 85; Plant response rating, Kochia (kochia (Kochia scoparia); [13]): 90; Crabgrass, Large plant response rating (0 to 100 scale) ([5]; 13 to 15 days): 75; Plant response rating, Crabgrass, Large [5, 11]: 70; Plant response rating, Crabgrass, Large [5, 12]: 80; Plant response rating, Crabgrass, Large [5, 13]: 85; Morningglory plant response rating (0 to 100 scale) ([6]; 13 to 15 days): 60; Plant response rating, Morningglory [6, 11]: 60; Plant response rating, Morningglory [6, 12]: 60; Plant response rating, Morningglory [6, 13]: 65; Soybean plant response rating (0 to 100 scale) (soybean (Glycine max); 13 to 15 days): 70; Plant response rating, Soybean (soybean (Glycine max); [11]): 70; Plant response rating, Soybean (soybean (Glycine max); [12]): 75; Plant response rating, Soybean (soybean (Glycine max); [13]): 90; Velvetleaf plant response rating (0 to 100 scale) ([7]; 13 to 15 days): 95; Plant response rating, Velvetleaf [7, 11]: 75; Plant response rating, Velvetleaf [7, 12]: 98; Plant response rating, Velvetleaf [7, 13]: 98; Wheat plant response rating (0 to 100 scale) ([8]; 13 to 15 days): 5; Plant response rating, Wheat [8, 11]: 0; Plant response rating, Wheat [8, 12]: 5; Plant response rating, Wheat [8, 13]: 10; Cupgrass, Woolly plant response rating (0 to 100 scale) ([9]; 13 to 15 days): 65; Plant response rating, Cupgrass, Woolly [9, 11]: 65; Plant response rating, Cupgrass, Woolly [9, 12]: 65; Plant response rating, Cupgrass, Woolly [9, 13]: 70; Nutsedge, Yellow plant response rating (0 to 100 scale) ([10]; 13 to 15 days): 10; Plant response rating, Nutsedge, Yellow [10, 11]: 0; Plant response rating, Nutsedge, Yellow [10, 12]: 60; Plant response rating, Nutsedge, Yellow [10, 13]: 60

Question: What does the source list for CCCCn1c(-c2cccc(Cl)c2)ncc(C(=O)C2=C(O)CCCC2=O)c1=O [Compound 146]?
Answer: Ryegrass, Italian plant response rating (0 to 100 scale) ([1]; 13 to 15 days): 5; Plant response rating, Ryegrass, Italian [1, 11]: 5; Plant response rating, Ryegrass, Italian [1, 12]: 10; Plant response rating, Ryegrass, Italian [1, 13]: 15; Bermudagrass plant response rating (0 to 100 scale) ([2]; 13 to 15 days): 90; Plant response rating, Bermudagrass [2, 11]: 85; Plant response rating, Bermudagrass [2, 12]: 100; Plant response rating, Bermudagrass [2, 13]: 100; Cocklebur plant response rating (0 to 100 scale) ([3]; 13 to 15 days): 25; Plant response rating, Cocklebur [3, 11]: 10; Bromegrass, Downy plant response rating (0 to 100 scale) ([4]; 13 to 15 days): 5; Plant response rating, Bromegrass, Downy [4, 11]: 0; Plant response rating, Bromegrass, Downy [4, 12]: 10; Plant response rating, Bromegrass, Downy [4, 13]: 35; Kochia plant response rating (0 to 100 scale) (kochia (Kochia scoparia); 13 to 15 days): 45; Plant response rating, Kochia (kochia (Kochia scoparia); [11]): 40; Plant response rating, Kochia (kochia (Kochia scoparia); [12]): 85; Plant response rating, Kochia (kochia (Kochia scoparia); [13]): 90; Crabgrass, Large plant response rating (0 to 100 scale) ([5]; 13 to 15 days): 75; Plant response rating, Crabgrass, Large [5, 11]: 65; Plant response rating, Crabgrass, Large [5, 12]: 85; Plant response rating, Crabgrass, Large [5, 13]: 98; Morningglory plant response rating (0 to 100 scale) ([6]; 13 to 15 days): 15; Plant response rating, Morningglory [6, 11]: 0; Plant response rating, Morningglory [6, 12]: 85; Plant response rating, Morningglory [6, 13]: 95; Soybean plant response rating (0 to 100 scale) (soybean (Glycine max); 13 to 15 days): 85; Plant response rating, Soybean (soybean (Glycine max); [11]): 70; Plant response rating, Soybean (soybean (Glycine max); [12]): 98; Plant response rating, Soybean (soybean (Glycine max); [13]): 100; Velvetleaf plant response rating (0 to 100 scale) ([7]; 13 to 15 days): 85; Plant response rating, Velvetleaf [7, 11]: 80; Plant response rating, Velvetleaf [7, 12]: 98; Plant response rating, Velvetleaf [7, 13]: 100; Wheat plant response rating (0 to 100 scale) ([8]; 13 to 15 days): 0; Plant response rating, Wheat [8, 11]: 0; Plant response rating, Wheat [8, 12]: 15; Plant response rating, Wheat [8, 13]: 45; Cupgrass, Woolly plant response rating (0 to 100 scale) ([9]; 13 to 15 days): 65; Plant response rating, Cupgrass, Woolly [9, 11]: 60; Plant response rating, Cupgrass, Woolly [9, 12]: 65; Plant response rating, Cupgrass, Woolly [9, 13]: 75; Nutsedge, Yellow plant response rating (0 to 100 scale) ([10]; 13 to 15 days): 10; Plant response rating, Nutsedge, Yellow [10, 11]: 5; Plant response rating, Nutsedge, Yellow [10, 12]: 20; Plant response rating, Nutsedge, Yellow [10, 13]: 40
